Experiment [1] concerns h-Tel quadruplex DNA, 5'-biotin-d[AG3(T2AG3)3] (DNA, G4) AGGGTTAGGGTTAGGGTTAGGG
The experiment can be described thus: SPR.

In experiment [2] the target is human recombinant β2 adrenergic receptor (Homo sapiens, UniProt P07550). The experiment can be described thus: β2 adrenergic receptor inhibition assay. The class given is binding. The conditions noted are these: read-out: β2 adrenergic % inh @1 μM. The procedure:
hEGR study and the M2 and the β2 receptor inhibition assay were performed as previously reported.
The new G-quadruplex ligands were designed in an attempt to obtain molecules with improved toxicological and on-target profiles, but maintaining the same favorable chemical and pharmacological features of the lead compound 1. With the aim of selecting the best variants, a step by step comparative analysis of their off- and on-target properties was performed. Initially the new molecules were tested for their ability to interact with and inhibit the human recombinant β2 adrenergic and M2 muscarinic receptors, and to reduce the hERG tail current in a patch clamp assay. […] Therefore, we might expect that the new ligands would impair cardiac functionality to a lesser extent than the lead molecule does.

The test system of another experiment is BJ-EHLT fibroblasts. Description: γ-H2AX/TRF1 colocalization (TIFs, telomere uncapping). The experiment is classed as cell-based, human. The procedure: Cells were fixed in 2% formaldehyde and permeabilized in 0.25% Triton X100 in PBS for 5 min at room temperature. For immunolabeling, cells were incubated with primary antibody, then washed in PBS and incubated with the secondary antibodies. The following primary antibodies were used: pAb and mAb anti-TRF1(Abcam Ltd.; Cambridge UK); mAb (Upstate, Lake Placid, NY) and pAb anti-γH2AX (Abcam); mAb anti-PCNA (Sigma Chemicals, Milano, Italy). The following secondary antibody were used: TRITC conjugated Goat anti Rabbit, FITC conjugated Goat anti Mouse (Jackson ImmunoResearch Europe Ltd., Suffolk, UK). Fluorescence signals were recorded by using a Leica DMIRE2 microscope equipped with a Leica DFC 350FX camera and elaborated by a Leica FW4000 deconvolution software (Leica, Solms, Germany). This system permits to focus single planes inside the cell generating 3D highresolution images. For quantitative analysis of γH2AX positivity, 200 cells on triplicate slices were scored. For TIFs analysis, in each nucleus a single plane was analyzed and at least 50 nuclei per sample were scored.
Unfortunately, we were not able to test compounds 4, 5 and the 0,5 μM dose of 3 as they were fluorescent in both red and green channels. […] To ascertain whether γ-H2AX was phosphorylated in response to dysfunctional telomeres, double immunofluorescence experiments were processed by confocal microscopy. We observed that some of the γ-H2AX foci induced by G4-ligands colocalized with TRF1, a good marker for interphase telomeres, forming the so-called telomere dysfunction-induced foci (TIFs) (Figure 2B).
Figure 2 DNA damage activation at telomeres. BJ-EHLT fibroblasts were treated for 24 hrs with compound 1 and the indicated ligands at the doses 0.1 (light-grey bars) and 0.5 μM (dark-grey bars). Cells were processed for immunofluorescence (IF) using antibodies against γ-H2AX and TRF1 to mark DNA damage and telomeres respectively. Percentages of γ-H2AX- (A) and TIF-positive (B) treated and untreated cells are reported in the histograms. (C) Mean number of TIFs in the indicated samples. Cells with four or more γ-H2AX/TRF1 foci were scored as TIF positive. Error bars indicate the standard deviation. (D) Representative images of IF of untreated and 1, 3, 6 and 8-treated BJ-EHLT cells. Enlarged views of TIFs are reported on the right of the merged images. The images were acquired with a Leica Deconvolution microscope (magnification 100x). (E) Cells treated as in (A) were processed for IF of γ-H2AX and PCNA to mark replicating cells. Percentage of γ-H2AX+/PCNA- or γ-H2AX+/PCNA + nuclei in the indicated samples are reported in the histograms.

The next experiment deals with HT29 cells. The experiment can be described thus: Colony forming ability, single agent or combined with SN-38. The experiment is classed as cell-based, human. As for the experimental part: The HT29 cells were seeded in 60 mm- Petri dishes at a density of 5x10^4 cells/ plate in DMEM medium plus 10% serum FCS. After 24 hours cells were exposed to the following drugs: Ethyl-10-hydroxy-camptothecin (SN-38; 0.2, 0.4, 0.8 μM for 2 hrs), compound 8 (at 0.1, 0.2 and 0.4 μM for 96 hours) and compound 1 (0.5 and 1 μM for 96 hours). In the combination experiments the two different sequence of drug administration were evaluated: campthotecin followed by G-quadruplex ligands and the inverse sequence at fixed equipotent ratios. The medium containing the first drug was removed and replaced with fresh medium containing the second drug. Colony forming ability was evaluated as previously reported.
Synergism, additivity, and antagonism were assessed by isobologram analysis as reported previously. Combination index (CI) values <0.9, > 0.9 < 1.2, and >1.2 indicate synergism, additivity, and antagonism, respectively. The Student’s t-test (unpaired, two-tailed) was used for comparing statistical differences. Differences were considered statistically significant when P < 0.05.
We have previously reported that compound 1 in combination therapy with topoisomerase (TOPO) I inhibitors (Camptothecins) produced a synergistic antitumoral activitiy in in vitro and in vivo models. […] The study of in vitro interaction between agent 8 and ethyl-10-hydroxy-camptothecin (SN-38), the active metabolite of camptothecin Irinotecan, was preceded by experiments in which the cell colony-forming ability of the human colorectal adenocarcinoma HT29 cells was evaluated at different doses of compound 1 or 8. […]
Figure 3 Anti-tumor efficacy of compound 8 in single or combined administration with the topoisomerase I inhibitor SN-38. […] Surviving fractions were calculated as the ratio of absolute survival of the treated sample/absolute survival of the untreated sample. […] In the histograms the surviving fractions calculated as in (A) are reported. […] (C) Combination Index for SN-38 and 8 was calculated by the Chou–Talalay method. […]

Chain of human recombinant β2 adrenergic receptor (P07550 whole entry): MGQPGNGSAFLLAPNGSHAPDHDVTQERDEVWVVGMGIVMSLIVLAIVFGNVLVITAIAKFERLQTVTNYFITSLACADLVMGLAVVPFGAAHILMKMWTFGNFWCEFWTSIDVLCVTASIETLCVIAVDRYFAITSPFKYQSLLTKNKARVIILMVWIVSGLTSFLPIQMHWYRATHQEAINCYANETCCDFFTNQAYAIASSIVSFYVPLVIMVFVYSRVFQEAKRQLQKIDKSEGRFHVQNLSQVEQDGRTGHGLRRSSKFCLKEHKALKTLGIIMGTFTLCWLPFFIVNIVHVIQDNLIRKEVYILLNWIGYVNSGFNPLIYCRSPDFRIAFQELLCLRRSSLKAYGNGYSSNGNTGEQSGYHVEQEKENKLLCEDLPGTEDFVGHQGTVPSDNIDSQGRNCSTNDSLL

With `CC(=O)NCC#Cc1ccc2c3cccc4c3c([n+](C)c2c1)-c1ccccc1N4C` [Compound 8], the K in experiment [1] was determined as 1.42e+07 M⁻¹. Moreover, the inhibition at 1 µM in experiment [2] came out at 2%. The “mean TIFs per nucleus” value with BJ-EHLT fibroblasts (24 hrs) was “about seven”. Further, the “percentage of cells with more than four γ-H2AX/TRF1 colocalizations (TIF-positive)” value in the experiment with BJ-EHLT fibroblasts (24 hrs, 0,5 μM) is on record as approximately 40%. Further, the “cell survival (colony-forming ability), single agent” value with HT29 cells (HT29, 96 hours, 0.1 to 0.8 μM) is “inhibited cell survival in a dose-dependent manner like compound 1 but more efficiently so”. In addition, the “Interaction with SN-38, inverse sequence” value with HT29 cells (HT29, G4-ligand followed by SN-38) was “additive or slight synergistic interaction”. The “Combination Index (CI) with SN-38” value in the experiment with HT29 cells (HT29, SN-38 (2 hrs) followed by the G4-ligand (96 hours)) is recorded as less than 0.5.
